Reference: patent US11773093B1, “N-(pyrimido[2,3-b]indol-7-yl)acetamide compounds as antibacterial agents” (KING FAISAL UNIVERSITY, priority 2023, dated 2023)
Values after ≈ are worked out from the molar mass of the structure shown. Like-named read-outs stand apart in the source and are kept apart here.

Assays:
[1] = test system: Staphylococcus aureus ATCC 29213; assay: In vitro antibacterial activity (MIC, CLSI M07-A10 dilution); format: cell-based; conditions: ATCC29213
[2] = test system: Staphylococcus aureus ATCC BAA-1556 (MERSA resistant); assay: as above; format: cell-based; conditions: ATCCBAA1556
[3] = test system: Staphylococcus epidermidis; assay: as above; format: cell-based
[4] = test system: Bacillus subtilis MTCC 441; assay: as above; format: cell-based; conditions: MTCC441
[5] = test system: Enterococcus faecium ATCC 35667; assay: as above; format: cell-based; conditions: ATCC35667
[6] = test system: Enterococcus faecium ATCC 51559 (VRE resistant); assay: as above; format: cell-based
[7] = test system: Klebsiella pneumonia MTCC 618; assay: as above; format: cell-based; conditions: Klebsiella pneumoniae, MTCC618
[8] = test system: Escherichia coli MTCC 443; assay: as above; format: cell-based; conditions: MTCC443
[9] = test system: Pseudomonas aeruginosa MTCC 741; assay: as above; format: cell-based; conditions: MTCC741
[10] = test system: Mycobacterium tuberculosis H37Rv strain; assay: Anti-tubercular properties, alamar blue microplate MIC; format: cell-based; conditions: 168 h, M. tuberculosis H37Rv, seven days incubation at 37° C., read-out: anti-mycobacterial activity (MIC)
DNA gyrase from E. coli = target: T1, DNA gyrase from E. coli (Escherichia coli, UniProt P0AES4+P0AES6); assay: Inhibitory activities on E. coli DNA Gyrase (Inspiralis assay); format: biochemical
T1 construct: purchased Inspiralis
T1 sequence (P0AES4 whole entry, one chain of several): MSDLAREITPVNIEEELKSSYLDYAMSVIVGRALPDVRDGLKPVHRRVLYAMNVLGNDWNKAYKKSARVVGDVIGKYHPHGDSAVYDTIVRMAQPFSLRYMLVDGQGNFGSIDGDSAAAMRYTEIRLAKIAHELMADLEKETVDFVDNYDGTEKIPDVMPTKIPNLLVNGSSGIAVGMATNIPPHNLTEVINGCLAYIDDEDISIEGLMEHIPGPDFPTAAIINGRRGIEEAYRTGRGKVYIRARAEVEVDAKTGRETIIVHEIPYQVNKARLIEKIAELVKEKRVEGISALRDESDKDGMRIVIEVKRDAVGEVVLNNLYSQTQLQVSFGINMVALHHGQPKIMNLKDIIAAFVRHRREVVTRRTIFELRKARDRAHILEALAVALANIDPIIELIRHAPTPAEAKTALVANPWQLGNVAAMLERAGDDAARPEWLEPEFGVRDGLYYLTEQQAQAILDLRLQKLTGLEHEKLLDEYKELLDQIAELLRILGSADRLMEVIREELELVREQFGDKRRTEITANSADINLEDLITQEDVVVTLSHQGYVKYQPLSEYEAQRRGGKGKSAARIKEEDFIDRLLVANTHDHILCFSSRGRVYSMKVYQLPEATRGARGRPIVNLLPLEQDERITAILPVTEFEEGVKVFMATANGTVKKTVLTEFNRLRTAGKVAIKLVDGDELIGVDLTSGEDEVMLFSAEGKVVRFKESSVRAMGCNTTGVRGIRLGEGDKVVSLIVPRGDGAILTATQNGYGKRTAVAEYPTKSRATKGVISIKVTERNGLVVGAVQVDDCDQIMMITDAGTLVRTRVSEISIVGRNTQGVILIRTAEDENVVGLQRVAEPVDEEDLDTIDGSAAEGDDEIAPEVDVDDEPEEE
Method: Inhibitory potencies were investigated utilizing the Inspiralis assay on streptavidin-coated 96-well microtiter plates. First, the plates were rehydrated with buffer (20 mM Tris-HCl with pH 7.6, 0.01% w/v BSA, 0.05% v/v Tween 20, 137 mM NaCl) and the biotinylated oligonucleotide was then immobilized. After washing off the unbound oligonucleotide, the enzyme test was performed. The reaction volume of 30 μL in buffer (35 mM Tris×HCl with pH 7.5, 4 mM MgCl2, 24 mM KCl, 2 mM DTT, 1.8 mM spermidine, 1 mM ATP, 6.5% w/v glycerol, 0.1 mg/mL albumin) contained 1.5 U of DNA gyrase from E. coli, 0.75 μg of relaxed pNO1 plasmid, and 3 μL solution of the inhibitor in 10% DMSO and 0.008% Tween 20. Reaction solutions were incubated at 37° C. for 30 min. After that, the TF buffer (50 mM NaOAc with pH 5.0, 50 mM NaCl and 50 mM MgCl2) was added to terminate the enzymatic reaction. After additional incubation for 30 min at rt, during which biotinoligonucleotide-plasmid triplex was formed, the unbound plasmid was washed off using TF buffer and SybrGOLD in T10 buffer (10 mM Tris HCl with pH 8.0 and 1 mM EDTA) was added. The fluorescence was measured with a microplate reader (BioTek Synergy H4, excitation: 485 nm, emission: 535 nm). Initial screening was done at 100 or 10 μM concentration of inhibitors. […] GraphPad Prism software was used to calculate the IC50 values. […]

Row | Structure (SMILES) | MIC [1] [µg/mL] | MIC [2] [µg/mL] | MIC [3] [µg/mL] | MIC ([4]; Bacillus subtilis MTCC 441, read-out: MIC) [µg/mL] | MIC ([5]; Enterococcus faecium ATCC 35667, read-out: MIC) [µg/mL] | MIC ([6]; Enterococcus faecium ATCC 51559 (VRE resistant), read-out: MIC) [µg/mL] | MIC ([7]; Klebsiella pneumonia MTCC 618, read-out: MIC) [µg/mL] | MIC [8] [µg/mL] | MIC ([9]; Pseudomonas aeruginosa MTCC 741, read-out: MIC) [µg/mL] | MIC [10] [µg/mL] | IC50 (DNA gyrase from E. coli) [nM] | MIC ([4]; Bacillus subtilis) [µg/mL] | MIC ([5]; Enterococcus faecium) [µg/mL] | MIC ([6]; Enterococcus faecium) [µg/mL] | MIC [7] [µg/mL] | MIC ([9]; Pseudomonas aeruginosa) [µg/mL]
1 | CC(=O)Nc1ccc2c(c1)[nH]c1nccc(Nc3ccc(C(=O)O)cc3)c12 [Example 8, 4-((7-acetamido-9H-pyrido[2,3-b]indol-4-yl)amino)benzoic acid] | 0.25 (≈ 0.694 µM) | 4 (≈ 11.1 µM) | 0.25 (≈ 0.694 µM) | 0.25 (≈ 0.694 µM) | 0.5 (≈ 1.39 µM) | 1 (≈ 2.77 µM) | 1 (≈ 2.77 µM) | 1 (≈ 2.77 µM) | 0.25 (≈ 0.694 µM) | 8 (≈ 22.2 µM) | 125 |  |  |  |  | 
2 | CN[C@H](CC(C)C)C(=O)N[C@H]1C(=O)N[C@@H](CC(N)=O)C(=O)N[C@H]2C(=O)N[C@H]3C(=O)N[C@H](C(=O)N[C@H](C(=O)O)c4cc(O)cc(O)c4-c4cc3ccc4O)[C@H](O)c3ccc(c(Cl)c3)Oc3cc2cc(c3O[C@@H]2O[C@H](CO)[C@@H](O)[C@H](O)[C@H]2O[C@H]2C[C@](C)(N)[C@H](O)[C@H](C)O2)Oc2ccc(cc2Cl)[C@H]1O [Vancomycin, reference compound] |  |  |  |  |  |  |  |  |  |  |  | 0.5 (≈ 0.345 µM) | 0.5 (≈ 0.345 µM) | > 128 | > 128 | > 128
